Patent US9420793B2, “Antiparasitic compounds” (Avista Pharma Solutions, priority 2015, dated 2016)
Read-outs that look alike come from different tables or passages of the source.

What was measured:
Aedes aegypti = assay: In vitro evaluation of ingestion activity against mosquitoes; settings: at 20 hours, compound in bovine blood, read-out: concentration at which active, mosquito ingestion
Procedure: In Vitro Evaluation of Ingestion Activity Against Mosquitoes (Aedes aegypti)
A solution of test compounds is added to bovine blood contained in a feeding chamber to reach the desired final concentration. Blood spiked with DMSO is prepared to serve as control. Adult female mosquitoes are introduced at the bottom of the chamber and allowed to feed on blood mixtures containing DMSO or test compounds for 30 minutes. Fully engorged mosquitoes are sorted into clean chambers after the blood meal and monitored for survival over 3 days. Replicates containing 10 mosquitoes are performed with each test compound concentration and results calculated as % mortality at specific time points.

[1] = tested on: Dirofilaria immitis microfilariae; assay: Dirofilaria immitis microfilariae motility assay; settings: 72 h, read-out: concentration at which active, microfilariae motility
R. sanguineus = assay: In vitro tick contact assay, comparison with standards
Procedure: (§1) A solution of the test compounds was used to coat the inner wall of glass vials and to treat two filter papers. Once dried, one filter paper was placed in the cap of the vial and the other in the bottom of the vial. Each treated vial was infested with 10 ticks. Contact of the ticks with residues was induced by holding the vials in a controlled environment and assessment was performed at 12, 24 and 48 hours after application in comparison with untreated glass vials and solvent-treated glass vials. Compounds were tested in duplicate and two separate trials (n=4).

Ctenocephalides felis [2] = settings: fleas
Procedure: In Vitro Evaluation of Ingestion Activity Against Fleas (Ctenocephalides Felis)
For flea ingestion tests, an aliquot of each compound stock was added to organic bovine blood contained in an artificial feeding container, with a final DMSO concentration of 0.5%. Ten newly emerged unfed fleas, Ctenocephalides felis, from a laboratory colony, 0-7 days old, were aspirated into a chamber and exposed to the appropriate feeding container and held in a controlled environment at 35° C. Fleas were evaluated for % mortality at 24, 48, and 72 hours post infestation. Fleas showing normal movement and/or jumping ability were considered viable and those showing no movement after tapping the vials were scored as dead. The compound+blood mixture was replaced every 24 hours.

A. americanum = assay: In vitro tick contact assay, comparison with standards; settings: 48 h
Procedure: as §1

Ctenocephalides felis [3] = assay: Ctenocephalides felis residual contact assay; settings: 48 h; fleas
Procedure: Ctenocephalides felis Residual Contact Assay
A solution of the test compounds, individually and in combination was dispensed onto a substrate placed into a glass vial. The treated surface was allowed to dry before infesting each vial with 10 adult Ctenocephalides felis. The treated vials were held in a controlled environment and assessment was performed at 6, 24 and 48 hours after application in comparison with untreated controls glass vials and solvent-treated glass vials. Compounds were tested in duplicate and two separate trials (n=4).

D. variabilis = assay: In vitro tick contact assay, comparison with standards
Procedure: as §1

I. scapularis = assay: as above
Procedure: as §1

Question: CCCCC(=O)N1CC2(C1)OCc1cc(C3=NSC(c4cc(Cl)c(F)c(Cl)c4)(C(F)(F)F)C3)ccc12 (centres unmarked) [Compound 35, 1-[6-[5-(3,5-dichloro-4-fluoro-phenyl)-5-(trifluoromethyl)-4H-isothiazol-3-yl]spiro[1H-isobenzofuran-3,3′-azetidine]-1′-yl]pentan-1-one] was tested. Which minimal effective concentration (Aedes aegypti) did it give?
Answer: < 1 µg/mL

Question: What about the minimal effective concentration [1] of the same molecule?
Answer: < 10 µM

Question: For CNC(=O)N1CC2(C1)OCc1cc(C3=NSC(c4cc(Cl)c(F)c(Cl)c4)(C(F)(F)F)C3)ccc12 (centres unmarked) [Compound 41, 6-[5-(3,5-dichloro-4-fluoro-phenyl)-5-(trifluoromethyl)-4H-isothiazol-3-yl]-N-methyl-spiro[1H-isobenzofuran-3,3′-azetidine]-1′-carboxamide], which minimal effective concentration (Aedes aegypti) is on record?
Answer: < 1 µg/mL

Question: What about the minimal effective concentration [1] of the same molecule?
Answer: < 10 µM

Question: Which “R. sanguineus Contact EC50” value (R. sanguineus; 24 h) does the source give for Cc1cc(C2=NOC(c3cc(Cl)cc(Cl)c3)(C(F)(F)F)C2)ccc1C(=O)NCC(=O)NCC(F)(F)F (centres unmarked) [Fluralaner] here?
Answer: 37.1 ± 16.3 ppm

Question: What about the “R. sanguineus Contact EC50” value (R. sanguineus; 48 h) of the same molecule?
Answer: 9.8 ± 5.0 ppm

Question: What about the “Ingestion EC50” value (Ctenocephalides felis [2]; 2 h) of the same molecule?
Answer: 1.6 ± 0.7 ppm

Question: And the “Ingestion EC50” value (Ctenocephalides felis [2]; 24 h)?
Answer: 0.06 ± 0.02 ppm

Question: What about the “A. americanum Contact EC50” value (A. americanum) of the same molecule?
Answer: 20.4 ± 10.7 ppm

Question: What about the “Contact EC50” value (Ctenocephalides felis [3]) of the same molecule?
Answer: >50 ppm

Question: And the “D. variabilis Contact EC50” value (D. variabilis; 24 h)?
Answer: 18.4 ± 3.0 ppm

Question: And the “D. variabilis Contact EC50” value (D. variabilis; 48 h)?
Answer: 4.9 ± 1.4 ppm

Question: And the “I. scapularis Contact EC50” value (I. scapularis; 24 h)?
Answer: 6.4 ± 3.3 ppm

Question: What about the “I. scapularis Contact EC50” value (I. scapularis; 48 h) of the same molecule?
Answer: 1.3 ± 0.2 ppm

Question: With CCC(=O)N1CC2(C1)OCc1cc(C3=NSC(c4cc(Cl)c(F)c(Cl)c4)(C(F)(F)F)C3)ccc12 (centres unmarked) [Compound 26, 1-[6-[5-(3,5-dichloro-4-fluoro-phenyl)-5-(trifluoromethyl)-4H-isothiazol-3-yl]spiro[1H-isobenzofuran-3,3′-azetidine]-1′-yl]propan-1-one] as the molecule, how does the minimal effective concentration [1] read?
Answer: < 10 µM

Question: For O=C(c1ccc(N2CCOCC2)cc1)N1CC2(C1)OCc1cc(C3=NSC(c4cc(Cl)c(F)c(Cl)c4)(C(F)(F)F)C3)ccc12 (centres unmarked) [Compound 13, [6-[5-(3,5-dichloro-4-fluoro-phenyl)-5-(trifluoromethyl)-4H-isothiazol-3-yl]spiro[1H-isobenzofuran-3,3′-azetidine]-1′-yl]-(4-morpholinophenyl)methanone], which minimal effective concentration [1] is on record?
Answer: < 10 µM

Question: For O=C(CCC(F)(F)F)N1CC2(C1)OCc1cc(C3=NSC(c4cc(Cl)c(F)c(Cl)c4)(C(F)(F)F)C3)ccc12 (centres unmarked) [Compound 10, 1-[6-[5-(3,5-dichloro-4-fluoro-phenyl)-5-(trifluoromethyl)-4H-isothiazol-3-yl]spiro[1H-isobenzofuran-3,3′-azetidine]-1′-yl]-4,4,4-trifluoro-butan-1-one], which minimal effective concentration (Aedes aegypti) is on record?
Answer: < 1 µg/mL

Question: With COCC(=O)N1CC2(C1)OCc1cc(C3=NSC(c4cc(Cl)c(F)c(Cl)c4)(C(F)(F)F)C3)ccc12 (centres unmarked) [Compound 22, 1-[6-[5-(3,5-dichloro-4-fluoro-phenyl)-5-(trifluoromethyl)-4H-isothiazol-3-yl]spiro[1H-isobenzofuran-3,3′-azetidine]-1′-yl]-2-methoxy-ethanone] as the molecule, how does the minimal effective concentration [1] read?
Answer: < 10 µM

Question: Which results are given for CS(=O)(=O)CC(=O)N1CC2(C1)OCc1cc(C3=NO[C@@](c4cc(Cl)c(F)c(Cl)c4)(C(F)(F)F)C3)ccc12 (racemic) [(+/−) Sarolaner, Sarolaner]?
Answer: R. sanguineus Contact EC50 (R. sanguineus; 24 h): 37.8 ± 12.2 ppm; R. sanguineus Contact EC50 (R. sanguineus; 48 h): 12.7 ± 0.1 ppm; Ingestion EC50 (Ctenocephalides felis [2]; 24 h): 1.23 ± 0.11 ppm

Question: What does the source list for O=C(Nc1ccccc1)N1CC2(C1)OCc1cc(C3=NSC(c4cc(Cl)c(F)c(Cl)c4)(C(F)(F)F)C3)ccc12 (centres unmarked) [Compound 17, 6-[5-(3,5-dichloro-4-fluoro-phenyl)-5-(trifluoromethyl)-4H-isothiazol-3-yl]-N-phenyl-spiro[1H-isobenzofuran-3,3′-azetidine]-1′-carboxamide]?
Answer: minimal effective concentration (Aedes aegypti): < 1 µg/mL; minimal effective concentration [1]: < 10 µM

Question: How did the minimal effective concentration [1] turn out when CC(C)OCC(=O)N1CC2(C1)OCc1cc(C3=NSC(c4cc(Cl)c(F)c(Cl)c4)(C(F)(F)F)C3)ccc12 (centres unmarked) [Compound 23, 1-[6-[5-(3,5-dichloro-4-fluoro-phenyl)-5-(trifluoromethyl)-4H-isothiazol-3-yl]spiro[1H-isobenzofuran-3,3′-azetidine]-1′-yl]-2-isopropoxy-ethanone] was run?
Answer: < 10 µM

Question: With CCOCC(=O)N1CC2(C1)OCc1cc(C3=NSC(c4cc(Cl)c(F)c(Cl)c4)(C(F)(F)F)C3)ccc12 (centres unmarked) [Compound 24, 1-[6-[5-(3,5-dichloro-4-fluoro-phenyl)-5-(trifluoromethyl)-4H-isothiazol-3-yl]spiro[1H-isobenzofuran-3,3′-azetidine]-1′-yl]-2-ethoxy-ethanone] as the molecule, how does the minimal effective concentration [1] read?
Answer: < 10 µM

Question: Fc1c(Cl)cc(C2(C(F)(F)F)CC(c3ccc4c(c3)COC43CN(c4ncccn4)C3)=NS2)cc1Cl (centres unmarked) [Compound 40, 6-[5-(3,5-dichloro-4-fluoro-phenyl)-5-(trifluoromethyl)-4H-isothiazol-3-yl]-1′-pyrimidin-2-yl-spiro[1H-isobenzofuran-3,3′-azetidine]] was tested. Which minimal effective concentration [1] did it give?
Answer: < 10 µM

Question: Which minimal effective concentration [1] does the source give for CC(C)C(=O)N1CC2(C1)OCc1cc(C3=NSC(c4cc(Cl)c(F)c(Cl)c4)(C(F)(F)F)C3)ccc12 (centres unmarked) [Compound 25, 1-[6-[5-(3,5-dichloro-4-fluoro-phenyl)-5-(trifluoromethyl)-4H-isothiazol-3-yl]spiro[1H-isobenzofuran-3,3′-azetidine]-1′-yl]-2-methyl-propan-1-one] here?
Answer: < 10 µM

Question: O=C(N1CC2(C1)OCc1cc(C3=NSC(c4cc(Cl)c(F)c(Cl)c4)(C(F)(F)F)C3)ccc12)C(F)(F)C(F)(F)F (centres unmarked) [Compound 30, 1-[6-[5-(3,5-dichloro-4-fluoro-phenyl)-5-(trifluoromethyl)-4H-isothiazol-3-yl]spiro[1H-isobenzofuran-3,3′-azetidine]-1′-yl]-2,2,3,3,3-pentafluoro-propan-1-one] was tested. Which minimal effective concentration (Aedes aegypti) did it give?
Answer: < 1 µg/mL

Question: What about the minimal effective concentration [1] of the same molecule?
Answer: < 10 µM

Question: What does the source list for CCCCN1CC2(C1)OCc1cc(C3=NSC(c4cc(Cl)c(F)c(Cl)c4)(C(F)(F)F)C3)ccc12 (centres unmarked) [Compound 20, 1′-butyl-6-[5-(3,5-dichloro-4-fluoro-phenyl)-5-(trifluoromethyl)-4H-isothiazol-3-yl]spiro[1H-isobenzofuran-3,3′-azetidine]]?
Answer: minimal effective concentration (Aedes aegypti): < 1 µg/mL; minimal effective concentration [1]: < 10 µM

Question: How did the minimal effective concentration [1] turn out when CC(C)(C)CCN1CC2(C1)OCc1cc(C3=NSC(c4cc(Cl)c(F)c(Cl)c4)(C(F)(F)F)C3)ccc12 (centres unmarked) [Compound 21, 6-[5-(3,5-dichloro-4-fluoro-phenyl)-5-(trifluoromethyl)-4H-isothiazol-3-yl]-1′-(3,3-dimethylbutyl)spiro[1H-isobenzofuran-3,3′-azetidine]] was run?
Answer: < 10 µM

Question: Which results are given for CCNC(=O)N1CC2(C1)OCc1cc(C3=NSC(c4cc(Cl)c(F)c(Cl)c4)(C(F)(F)F)C3)ccc12 (centres unmarked) [Compound 16, 6-[5-(3,5-dichloro-4-fluoro-phenyl)-5-(trifluoromethyl)-4H-isothiazol-3-yl]-N-ethyl-spiro[1H-isobenzofuran-3,3′-azetidine]-1′-carboxamide]?
Answer: minimal effective concentration (Aedes aegypti): < 1 µg/mL; minimal effective concentration [1]: < 10 µM

Question: With CC(F)(F)C(=O)N1CC2(C1)OCc1cc(C3=NSC(c4cc(Cl)c(F)c(Cl)c4)(C(F)(F)F)C3)ccc12 (centres unmarked) [Compound 31, 1-[6-[5-(3,5-dichloro-4-fluoro-phenyl)-5-(trifluoromethyl)-4H-isothiazol-3-yl]spiro[1H-isobenzofuran-3,3′-azetidine]-1′-yl]-2,2-difluoro-propan-1-one] as the molecule, how does the minimal effective concentration [1] read?
Answer: < 10 µM

Question: With O=C(C1CCOCC1)N1CC2(C1)OCc1cc(C3=NSC(c4cc(Cl)c(F)c(Cl)c4)(C(F)(F)F)C3)ccc12 (centres unmarked) [Compound 19, [6-[5-(3,5-dichloro-4-fluoro-phenyl)-5-(trifluoromethyl)-4H-isothiazol-3-yl]spiro[1H-isobenzofuran-3,3′-azetidine]-1′-yl]-tetrahydropyran-4-yl-methanone] as the molecule, how does the minimal effective concentration (Aedes aegypti) read?
Answer: < 1 µg/mL

Question: What about the minimal effective concentration [1] of the same molecule?
Answer: < 10 µM

Question: CCCCCC(=O)N1CC2(C1)OCc1cc(C3=NSC(c4cc(Cl)c(F)c(Cl)c4)(C(F)(F)F)C3)ccc12 (centres unmarked) [Compound 36, 1-[6-[5-(3,5-dichloro-4-fluoro-phenyl)-5-(trifluoromethyl)-4H-isothiazol-3-yl]spiro[1H-isobenzofuran-3,3′-azetidine]-1′-yl]hexan-1-one] was tested. Which minimal effective concentration [1] did it give?
Answer: < 10 µM

Question: With N#CCC(=O)N1CC2(C1)OCc1cc(C3=NSC(c4cc(Cl)c(F)c(Cl)c4)(C(F)(F)F)C3)ccc12 (centres unmarked) [Compound 29, 3-[6-[5-(3,5-dichloro-4-fluoro-phenyl)-5-(trifluoromethyl)-4H-isothiazol-3-yl]spiro[1H-isobenzofuran-3,3′-azetidine]-1′-yl]-3-oxo-propanenitrile] as the molecule, how does the minimal effective concentration (Aedes aegypti) read?
Answer: < 1 µg/mL

Question: What about the minimal effective concentration [1] of the same molecule?
Answer: < 10 µM

Question: CC(=O)N1CC2(C1)OCc1cc(C3=NSC(c4cc(Cl)c(F)c(Cl)c4)(C(F)(F)F)C3)ccc12 (centres unmarked) [Compound 27, 1-[6-[5-(3,5-dichloro-4-fluoro-phenyl)-5-(trifluoromethyl)-4H-isothiazol-3-yl]spiro[1H-isobenzofuran-3,3′-azetidine]-1′-yl]ethanone] was tested. Which minimal effective concentration [1] did it give?
Answer: < 10 µM
